{"source": "patent US11820764B2", "about": "“Compound modulating GSK-3 activity” (National Institute of Immunology, priority 2020, dated 2023)", "key": {"[1]": {"test": "Blood brain barrier crossing, mass spectrometry of cerebrospinal fluid of treated mice", "format": "in vivo", "settings": "CSF of treated animals"}, "[2]": {"test": "Pharmacokinetics in rats, plasma HPLC", "format": "in vivo", "settings": "both sexes, rat, 15 ug/kg", "protocol": "The rats were randomly divided into two groups (I and II) in half respectively male and female. A dose of 15 μg/kg of Compound Y was administered to group I and II. Serial blood samples (0.5 mL) were collected into heparinized tubes from the retro-orbital region at 1, 2, 4, 6, 12, 24, 36, 48, and 72 h. Samples were immediately centrifuged at 12,000 rpm for 10 min and stored at −20° C. until analysis. Plasma was processed for HPLC analysis. 100 μl Acetonitrile was added in 100 μl plasma (1:1) and centrifuge at 12,000 for 5 minute. Supernatant transferred in a clean tube. Dried under Nitrogen gas 200 μl Acetonitrile: water (1:1) was added in dry tube and centrifuge at 12,000 rpm for 15 minute. Filtered with 0.2 μm membrane filter. 20 μl samples were used for analysis in HPLC. […] (FIG. 5)"}}}
{"smiles": "O=C(O)CCCCCN1C(=O)/C(=C/c2c[nH]c3ccccc23)SC1=S", "note": "[SG001]", "values": [{"measurement": "crossing of blood brain barrier (detection in CSF)", "setting": "[1]", "value": "able to cross the blood brain barrier"}, {"measurement": "Cmax", "setting": "[2]", "value": 27, "unit": "nM"}, {"measurement": "Tmax", "setting": "[2]", "value": 48, "unit": "h"}]}
